# ChEMBL document CHEMBL1221403, “Topsentinols, 24-isopropyl steroids from the marine sponge Topsentia sp” (J Nat Prod, 2010)
# pIC50: −log10 of the molar value. Activity calls are given as the source filed them. The calls are words filed in the database; no cut-off is given here.
# Experiments:
# Beta-secretase 1 = Beta-secretase 1 (Homo sapiens, UniProt P56817); experiment: Inhibition of BACE1-mediated cleavage of amyloid precursor protein after 16 hrs by spectrophotometry
# [1] = Inhibition of chymotrypsin in absence of Triton X-100
# [2] = Inhibition of chymotrypsin in presence of 0.01% Triton X-100
# Sequence of Beta-secretase 1 (P56817 whole entry): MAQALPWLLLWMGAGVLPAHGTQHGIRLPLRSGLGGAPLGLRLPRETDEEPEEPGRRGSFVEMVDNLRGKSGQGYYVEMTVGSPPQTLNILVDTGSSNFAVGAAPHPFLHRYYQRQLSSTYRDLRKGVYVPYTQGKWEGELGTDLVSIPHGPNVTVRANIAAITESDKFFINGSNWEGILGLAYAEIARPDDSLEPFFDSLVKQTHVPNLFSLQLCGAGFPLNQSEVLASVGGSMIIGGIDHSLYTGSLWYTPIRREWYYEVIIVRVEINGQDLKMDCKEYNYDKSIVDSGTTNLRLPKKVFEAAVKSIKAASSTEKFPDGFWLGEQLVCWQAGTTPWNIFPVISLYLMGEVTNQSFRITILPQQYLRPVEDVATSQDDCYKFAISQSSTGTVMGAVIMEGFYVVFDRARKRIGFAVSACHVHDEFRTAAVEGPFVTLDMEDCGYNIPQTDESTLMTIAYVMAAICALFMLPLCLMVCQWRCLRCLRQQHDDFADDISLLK
inhibition (Beta-secretase 1),pIC50 [1],pIC50 [2],pIC50 (Beta-secretase 1),SMILES
inactive,,,,C=C(C)C(/C=C\[C@@H](C)[C@H]1CC[C@H]2[C@@H]3C[C@H](O)[C@H]4C[C@H](O)[C@@H](O)C[C@]4(C)[C@H]3CC[C@]12C)C(C)C (stereo partly drawn)
inactive,,,,CC(C)C(/C=C/[C@@H](C)[C@H]1CC[C@H]2[C@@H]3CC=C4C[C@@H](O)CC[C@]4(C)[C@H]3CC[C@]12C)C(C)C
inactive,,,,CC(C)C(/C=C/[C@@H](C)[C@H]1CC[C@H]2[C@@H]3C[C@H](O)[C@H]4C[C@H](O)[C@@H](O)C[C@]4(C)[C@H]3CC[C@]12C)C(C)C
inactive,,,,CC(C)C(/C=C\[C@@H](C)[C@H]1CC[C@H]2[C@@H]3C[C@H](O)[C@H]4C[C@H](O)[C@@H](O)C[C@]4(C)[C@H]3CC[C@]12C)C(C)C
Dose-dependent effect,5.57,4.46,5.92,CC(C)C(/C=C\[C@@H](C)[C@H]1CC[C@H]2[C@@H]3C[C@H](OS(=O)(=O)O)[C@H]4C[C@H](OS(=O)(=O)O)[C@@H](OS(=O)(=O)O)C[C@]4(C)[C@H]3CC[C@]12C)C(C)C [TOPSENTINOL K TRISULFATE]
